In paper PMC7353089, “The Hepatotoxicity of Alantolactone and Germacrone: Their Influence on Cholesterol and Lipid Metabolism in Differentiated HepaRG Cells” (Nutrients, 2020):
Like-named read-outs stand apart in the source and are kept apart here.

Key:
Assay type in all cases: cell-based, human
HMGCR mRNA = assay: RT-qPCR mRNA expression in dHepaRG cells; details: single exposure, the highest concentration
Description: The mRNA and protein expression changes were measured after a single administration of ALA and GER. Three concentrations were selected for each compound (non-toxic, non-toxic/slightly toxic and toxic). The cholesterol level of the dHepaRG cells was measured after a multiple exposure of the highest non-toxic concentrations of tested compounds. ATL (30 µM) and GER (100 µM) were administered four times every 24 h. The expression changes of genes and proteins related to cholesterol metabolism were measured in both single and multiple exposure experiments.
All treatments were performed in triplicates and every experiment was performed three times. The cells were washed twice with ice cold phosphate-buffered saline (PBS), scrapped and stored at −80 °C until use. Total RNA from cells was isolated using TriReagent according to the manufacturer’s instructions (Biotech, Prague, Czech Republic). The purified RNA was dissolved in 40 µL of diethyl pyrocarbonate (DEPC)-treated water (0.01% DEPC in HPLC water, autoclaved) and stored at −80 °C. The measurement of absorbance at 260 and 280 nm using the NanoDrop ND-1000 UV–VIS Spectrophotometer (Thermo Fisher Scientific, Pardubice, Czech Republic) was used to determine RNA yields and purity. Subsequently, the RNA (4 µg) was treated with 2 U of DNase I (New England Biolabs, Ipswich, MA, USA) in a final volume of 30 µL for 25 min at 37 °C, 1.5 µL of 0.1 M ethylenediaminetetraacetic acid was added and the DNAse was inactivated by heat (5 min at 75 °C). The solution was diluted to a concentration of 0.1 µg/µL. The DNAse treated RNA was stored at −80 °C until further analyses. […] Fluorescence data were recorded at the end of each amplification step. Relative expression levels of the target genes were calculated as fold changes in triplicates for each group using the 2^−ΔΔCt method by normalization to the geometric mean of the Ct values of Sdha and Ywhaz, which were used as reference genes.

dHepaRG cells = assay: MTT cell viability assay; details: for toxicity toward dHepaRG cells compared with cancer cells: comparison of own IC50 with previously reported IC50 values; for cell viability: 24 and 72 h, MTT method and LDH leakage
Description: Cryopreserved HepaRG cells were obtained from Biopredic International (Rennes, France). Undifferentiated cells were seeded according to the supplier protocols in 96-well plates for the viability assays, and in 6-well plates for the mRNA and western blot measurements. The cells were cultured for two weeks in Williams E Medium with GlutaMAX™ (Invitrogen, Paisley, UK) supplemented with 10% fetal bovine serum, 2 mM glutamine, 100 IU/mL penicillin, 100 μg/mL streptomycin, 5 μg/mL insulin, and 50 μM hydrocortisone hemisuccinate. The cells were afterwards cultured for another 2-week period in the same medium supplemented with 1.7% DMSO. The medium was replaced every 2–3 days.
In the 96-well plates, viability was evaluated using the methylthiazole-tetrazolium (MTT) colorimetric assay. After 24 and 72-h exposure, 25 μL of MTT solution (3 mg of MTT in 1 mL of phosphate buffered saline, PBS) were added to each well. The plates were incubated at 37 °C for an additional 2 h, after which the medium was removed and the formed formazan was dissolved in 50 μL of 0.08 M HCl in isopropanol during 30 min shaking. The absorbance in each well was read at 570 and 690 nm using a spectrophotometer (Tecan Infinite M200, Tecan, Männedorf, Switzerland).

HMGCS mRNA = assay: RT-qPCR mRNA expression in dHepaRG cells
Description: Three concentrations were selected for each compound (non-toxic, non-toxic/slightly toxic and toxic). The cholesterol level of the dHepaRG cells was measured after a multiple exposure of the highest non-toxic concentrations of tested compounds. […] The expression changes of genes and proteins related to cholesterol metabolism were measured in both single and multiple exposure experiments.
All treatments were performed in triplicates and every experiment was performed three times. The cells were washed twice with ice cold phosphate-buffered saline (PBS), scrapped and stored at −80 °C until use. Total RNA from cells was isolated using TriReagent according to the manufacturer’s instructions (Biotech, Prague, Czech Republic). The purified RNA was dissolved in 40 µL of diethyl pyrocarbonate (DEPC)-treated water (0.01% DEPC in HPLC water, autoclaved) and stored at −80 °C. The measurement of absorbance at 260 and 280 nm using the NanoDrop ND-1000 UV–VIS Spectrophotometer (Thermo Fisher Scientific, Pardubice, Czech Republic) was used to determine RNA yields and purity. Subsequently, the RNA (4 µg) was treated with 2 U of DNase I (New England Biolabs, Ipswich, MA, USA) in a final volume of 30 µL for 25 min at 37 °C, 1.5 µL of 0.1 M ethylenediaminetetraacetic acid was added and the DNAse was inactivated by heat (5 min at 75 °C). The solution was diluted to a concentration of 0.1 µg/µL. The DNAse treated RNA was stored at −80 °C until further analyses. The first strand cDNA was synthesized from 800 ng of total RNA and 1 µL of 50 µM random hexamers (Generi Biotech, Hradec Kralove, Czech Republic) using ProtoScript II reverse transcriptase (New England Biolabs, Ipswich, MA, USA). After the initial heat denaturation of total RNA (65 °C for 5 min), 4 µL of 5× ProtoScript II RT Reaction Buffer, 2 µL of 10× dithiothreitol (DTT), 2 µL of deoxynucleotide (dNTP) Mix 5 mM, 3.5 µL of H2O, and 0.5 µL of ProtoScript II 200 U/µL were added and mixed by pipetting. The reactions (20 µL) were incubated for 10 min at 25 °C, for 50 min at 42 °C, and for 5 min at 80 °C. The obtained cDNAs were diluted 1:6 by DEPC water. The qPCR analyses were carried out using QuantStudio 6 Flex (Applied Biosystems, Foster City, CA, USA) with SYBR green I (Xceed qPCR SG Mix, Institute of Applied Biotechnologies, Prague, Czech Republic) detection according to the manufacturer’s protocol. […] Fluorescence data were recorded at the end of each amplification step. Relative expression levels of the target genes were calculated as fold changes in triplicates for each group using the 2^−ΔΔCt method [28] by normalization to the geometric mean of the Ct values of Sdha and Ywhaz, which were used as reference genes.

ALB mRNA = assay: RT-qPCR mRNA expression in dHepaRG cells; details: after 6 h of exposure
Description: (§1) Three concentrations were selected for each compound (non-toxic, non-toxic/slightly toxic and toxic). […] The expression changes of genes and proteins related to cholesterol metabolism were measured in both single and multiple exposure experiments.
(§2) All treatments were performed in triplicates and every experiment was performed three times. The cells were washed twice with ice cold phosphate-buffered saline (PBS), scrapped and stored at −80 °C until use. Total RNA from cells was isolated using TriReagent according to the manufacturer’s instructions (Biotech, Prague, Czech Republic). The purified RNA was dissolved in 40 µL of diethyl pyrocarbonate (DEPC)-treated water (0.01% DEPC in HPLC water, autoclaved) and stored at −80 °C. The measurement of absorbance at 260 and 280 nm using the NanoDrop ND-1000 UV–VIS Spectrophotometer (Thermo Fisher Scientific, Pardubice, Czech Republic) was used to determine RNA yields and purity. […] Fluorescence data were recorded at the end of each amplification step. Relative expression levels of the target genes were calculated as fold changes in triplicates for each group using the 2^−ΔΔCt method [28] by normalization to the geometric mean of the Ct values of Sdha and Ywhaz, which were used as reference genes.

A1AT mRNA = assay: RT-qPCR mRNA expression in dHepaRG cells; details: after 24 h
Description: as §1, §2

[1] = dHepaRG cell viability, 24 h single exposure, read-out: IC50 ± SD, MTT
[2] = dHepaRG cell viability, 72 h single exposure, read-out: IC50 ± SD, MTT
[3] = dHepaRG cells, 24-h treatment, read-out: half-maximal inhibitory concentration of cell viability (approximate)

Structure (SMILES) | HMGCR mRNA level (HMGCR mRNA; 6-h exposure) | HMGCR mRNA level (HMGCR mRNA; 12- and 24-h exposure) | toxicity toward dHepaRG cells compared with cancer cells (dHepaRG cells) | IC50 (dHepaRG cells; [1]) [µM] | IC50 (dHepaRG cells; [2]) [µM] | highest non-toxic concentration (dHepaRG cells; dHepaRG cells) [µM] | IC50 (dHepaRG cells; [3]) [µM] | cell viability (dHepaRG cells; dHepaRG cells) | HMGCS mRNA level (HMGCS mRNA; multiple exposure: four applications every 24 h, analyzed 12 h after the last, 30 μM ATL, 100 μM GER, 20 μM LOV) | HMGCS mRNA level (HMGCS mRNA; single exposure, the highest concentration, 6-h exposure) | HMGCS mRNA level (HMGCS mRNA; single exposure, the highest concentration, 12- and 24-h exposure) | ALB mRNA expression (ALB mRNA) | A1AT mRNA expression (A1AT mRNA)
C=C1C(=O)O[C@@H]2C[C@@]3(C)CCC[C@H](C)C3=C[C@H]12 [ATL, alantolactone] | induction | decreased level | significantly lesser toxicity | 58.9 ± 3.5 | 57.2 ± 1 | 30 | ~60 | concentration-dependent decrease in the cell viability | induced | induction | decreased level |  | 
CC(C)=C1C/C=C(\C)CC/C=C(\C)CC1=O [GER, germacrone] |  |  | similar | 256 ± 5.7 | 242 ± 17.4 | 100 | ~250 | concentration-dependent decrease in the cell viability |  |  |  | induced | inhibited
